This is an account of results in publication PMC5021965 (Scientific Reports, 2016).

Where two headings read alike, the source gives them in different places.

The conditions of data set [1]: phenobarbital i.p. 80 mg/kg.
Protocol: Blood samples were collected under light ether anesthesia via the oculi chorioideae vein at 5, 10, 20, 30, 45, 60, 120, 240, 360, and 720 min after first dose and last dose. After 3 or 4 samplings, the appropriate amount of normal saline was administered to the rats via the tail vein to compensate for blood loss. The blood collected was mixed properly with the anticoagulant and centrifuged at 4000 rpm for 10 min. The plasma was separated and stored at −80 °C until drug analysis.
The pharmacokinetic parameters were calculated using noncompartmental analysis on Phenix WinNonlin 6.1 (Pharsight, St. Louis, MO). All values were expressed as mean ± S.D. Results were analyzed using one-way analysis of variance (ANOVA) followed by Tukey’s post hoc test. Differences among groups were determined by nonparametric test when necessary. Statistical significance was assumed at P < 0.05.
A further data set relates to hepatic SLCO1B1. Kind of data set: Activity and expression of hepatic SLCO1B1 in phenobarbital-treated rats. Type of data set: in vivo, rat. As to conditions: PB rats, phenobarbital i.p. 80 mg/kg.
The next data set deals with hepatic Cyp3a. Briefly: Activity and expression of hepatic Cyp3a in phenobarbital-treated rats. Particulars: PB rats, phenobarbital i.p. 80 mg/kg. As for the experimental part:
(§1) Another subset of experimental rats (CON, HFD and DM rats) were used for the primary rat hepatocytes isolation. […] Primary hepatocytes were isolated from experimental rats in a modified two-step collagenase perfusion method as previously reported. An aliquot of the hepatocyte suspension (at a density of 2.5 × 10^5/ml) was seeded in collagen-precoated plates. Following 4-h incubation, the medium was replaced with 500 μl fresh cultured medium. Twenty-four hours after plating, the medium was removed and the hepatocytes were overlaid with BD matrigel (0.25 mg/ml) in feeding medium (DMEM containing […] dexamethasone and 1% ITS) and cultured for another 24 h at 37 °C in a humidified atmosphere containing 5% CO2 for following experiments.
Repaglinide (20 μM) and midazolam (10 μM) were used as probe substrates to identify the activities of SLCO1B1 and Cyp3a, respectively.
Total rat liver extract was prepared in RIPA lysis buffer containing 1 mM PMSF to measure protein levels of Cyp3a and SLCO1B1. Protein concentrations were measured by the BCA protein assay kit. 50 μg proteins were separated on a SDS-polyacrylamide gel electrophoresis and transferred onto polyvinylidene fluoride membranes (Millipore Corporation, Billerica, MA, USA).

Data set [2] deals with normal rats and phenobarbital pre-treated rats. Kind of data set: Atorvastatin-induced hepatotoxicity in normal rats and rats pre-treated with phenobarbital. Particulars: phenobarbital i.p. 80 mg/kg with atorvastatin 10, 20, 40 mg/kg for 10 days. As for the experimental part:
For normal rats, they were randomly divided into vehicle (CON) rats, low-dose treatment (AL) rats, middle-dose treatment (AM) rats and high-dose treatment (AH) rats (n = 5 for each group). CON rats orally received daily dose of vehicle. […] The serum biochemical parameters, liver weight and ROS levels were measured as described above.

In data set [3] the test system is HepG2 cells. Briefly: Atorvastatin metabolism in HepG2 cells (formation of ortho-hydroxy atorvastatin). Particulars: HepG2, ketoconazole 2 and 10 μM; atorvastatin 30 μM, 30 min.
Protocol: (§3) The cells were cultured in DMEM containing 10% FBS (fetal bovine serum), non-essential amino acids, antibiotics (100 IU/ml penicillin and 100 μg/ml streptomycin), 2 mM L-glutamine, and 3.7 g/L NaHCO3 in a humidified incubator of 5% CO2 and 95% air atmosphere at 37 °C.
The test system of data set [4] is primary rat hepatocytes. Briefly: Hepatotoxicity in primary rat hepatocytes (MTT cell viability, LDH release). As to conditions: for effect on atorvastatin-induced cytotoxicity: primary hepatocytes of DM rats, atorvastatin 10 μM, GSH 0.5 and 2 mM, N-Acetylcysteine 0.5 and 2 mM, gemfibrozil 10 and 50 μM, ketoconazole 2 μM. As for the experimental part:
as §1
(§2) ROS generation was simultaneously measured using DCFH-DA as a fluorescent probe.
Background: Release of lactate dehydrogenase indicates damage to the cell membrane.

Data set [5] concerns primary rat hepatocytes. Briefly: ROS generation in primary rat hepatocytes (DCFH-DA probe). Particulars: primary hepatocytes of DM rats, atorvastatin 10 μM; GSH 0.5 and 2 mM, N-Acetylcysteine 0.5 and 2 mM, gemfibrozil 10 and 50 μM, ketoconazole 2 μM. Type of data set: cell-based. On the procedure:
as §1, §2

Data set [6] concerns HepG2 cells. Kind of data set: Hepatotoxicity of atorvastatin in HepG2 cells (MTT). Particulars: 10 μM, 24 h.
Protocol: as §3
[7] abbreviates: DM-AL: diabetic rats, 10 mg/kg, 10 days.
Setting [8] is: DM-AM: diabetic rats, 20 mg/kg, 10 days.
The mark [9] stands for this setting: diabetic rats, 10 and 20 mg/kg, 10 days.
Where [10] appears, read: serum, DM-AL: diabetic rats, 10 mg/kg, 10 days.
The mark [11] stands for this setting: serum, DM-AM: 20 mg/kg, 10 days.
The mark [12] stands for this setting: serum, DM-AM: diabetic rats, 20 mg/kg, 10 days.

Protocol for diabetic rats: Briefly, experimental rats were assigned randomly to three groups: control (CON) group (n = 5), high-fat diet (HFD) group (n = 5) and diabetic (DM) group (n = 20). The CON rats were fed on normal chow while both HFD rats and DM rats were fed on high-fat diet (TROPHIC Animal Feed High-tech Co. Ltd, Nantong, China). After six-week of dietary manipulation, DM rats intraperitoneally (i.p.) received a single dose of STZ (35 mg/kg).
The diabetic rats were randomly divided into four groups (n = 5 for each group). The first group served as control group (DM).
Following last dose, rats, fasted overnight, were anesthetized with diethyl ether and blood samples were collected for measurement of blood chemistry. Then, the animals were sacrificed; the liver samples were harvested for standard histology, hepatic biochemical measurement and Western blot.

For `CCC1(c2ccccc2)C(=O)NC(=O)NC1=O` [phenobarbital, Phenobarbital], the “effect on plasma exposure of atorvastatin in rats” value in data set [1] was “decreased”. Moreover, in the data set on hepatic SLCO1B1, the “activities and expressions of hepatic SLCO1B1” value is “significantly increased”. Further, the “activities and expressions of hepatic Cyp3a” value with hepatic Cyp3a is listed as “significantly increased”. Moreover, the “effect of co-administration on atorvastatin hepatotoxicity” value in [2] is recorded as “markedly potentiated”.

Turning to `CC(=O)N1CCN(c2ccc(OCC3COC(Cn4ccnc4)(c4ccc(Cl)cc4Cl)O3)cc2)CC1` (stereo not drawn) [ketoconazole, Ketoconazole], in the data set on HepG2 cells [3], the “effect of co-incubation on atorvastatin metabolism” value was “concentration-dependently inhibited”.

Take `N[C@@H](CCC(=O)N[C@@H](CS)C(=O)NCC(=O)O)C(=O)O` [GSH, Glutathione]: the “effect on atorvastatin-induced cytotoxicity” value in the data set on primary rat hepatocytes [4] was “concentration-dependently reversed”. The “effect on atorvastatin-induced production of ROS” value (“effect … of ROS” below) in the data set with primary rat hepatocytes [5] was “concentration-dependently reversed”.

Regarding `Cc1ccc(C)c(OCCCC(C)(C)C(=O)O)c1` [gemfibrozil], in the data set with primary rat hepatocytes [4], the “effect on atorvastatin-induced cytotoxicity” value was “concentration-dependently reversed”. Also, the “effect … of ROS” value in the data set with primary rat hepatocytes [5] was “concentration-dependently reversed”.

For `CC(=O)N[C@@H](CS)C(=O)O` [N-Acetylcysteine], in the data set on primary rat hepatocytes [4], the “effect on atorvastatin-induced cytotoxicity” value is “concentration-dependently reversed”. In addition, the “effect … of ROS” value with primary rat hepatocytes [5] is given as “concentration-dependently reversed”.

Turning to `CC(C)c1c(C(=O)Nc2ccccc2)c(-c2ccccc2)c(-c2ccc(F)cc2)n1CC[C@@H](O)C[C@@H](O)CC(=O)O` [atorvastatin, Atorvastatin calcium], the Body weight in the data set with diabetic rats (DM-AL: diabetic rats, 10 mg/kg atorvastatin orally once daily for 10 days) came to 269.3 ± 5.3 g. In the data set with diabetic rats (setting [7]), the FBG is recorded as 18.38 ± 1.75 mM, the FINS was determined as 32.65 ± 2.15 mIU/L, the HOMA-IR was 27.56 ± 2.01 and the “Liver weight (% of body weight)” value was 6.94 ± 0.95 % of body weight. The “Spleen weight (% of body weight)” value in the data set with diabetic rats (setting [7]) is 0.264 ± 0.027 % of body weight. Further, the “liver weight (% of body weight) compared with DM rats” value in the data set on diabetic rats (DM-AM: 20 mg/kg, 10 days) is on record as “almost doubled”. This compound also returned a Body weight in the data set with diabetic rats (DM-AM: diabetic rats, 20 mg/kg atorvastatin orally once daily for 10 days) of 250.8 ± 22.4 g. Moreover, in the data set with diabetic rats (setting [8]), the FBG amounted to 18.34 ± 1.60 mM, the FINS is listed as 32.51 ± 4.45 mIU/L, the HOMA-IR is recorded as 26.92 ± 2.52 and the “Liver weight (% of body weight)” value is on record as 10.60 ± 2.25 % of body weight. In the data set on diabetic rats (setting [8]), the “Spleen weight (% of body weight)” value is 0.392 ± 0.033 % of body weight. For the same compound, in the data set with diabetic rats (setting [9]), the “MDA levels in liver” value is “increased”; the “SOD, CAT, GSH-pX and SDH activities in liver” value is “dose-dependently lowered”. Besides, the histopathological damage scores result with diabetic rats (liver, DM-AL (10 mg/kg) and DM-AM (20 mg/kg) rats) is “Higher”. In the data set with diabetic rats (setting [10]), this compound had a TC of 4.02 ± 0.71 mM and a TG of 5.40 ± 0.50 mM. Moreover, in the data set with diabetic rats (setting [11]), the “AKP level compared with DM rats” value was “approximately doubled”, the “ALT level compared with DM rats” value is reported as “approximately doubled”, the “AST level compared with DM rats” value is on record as “approximately doubled” and the “DBIL level compared with DM rats” value is reported as “almost tripled”. Further, in the data set with diabetic rats (setting [11]), the “TBIL level compared with DM rats” value was “almost tripled” and the “level of Alb” value is given as “significant decrease”. Besides, in the data set on diabetic rats (setting [12]), the TC worked out at 3.42 ± 0.52 mM and the TG turned out to be 3.75 ± 0.70 mM. The “cytotoxicity in primary hepatocytes of PB rats” value in the data set on primary rat hepatocytes [4] (phenobarbital pre-treated rats, 96 h) is listed as “severe cytotoxicity”. Further, the cell viability result with HepG2 cells [6] is listed as “little affected”.
